Data taken from patent US12187705B2, “Heteroaryl-triazole and heteroaryl-tetrazole compounds as pesticides” (Bayer Aktiengesellschaft, priority 2018, dated 2025).

Tests used:
Assay type in all cases: in vivo
Nilaparvata lugens = Nilaparvata lugens spray test; settings: Nilaparvata lugens, in Oryza sativa, 96 h
Experimental: Nilaparvata lugens—Spray Test
(§1) To produce a suitable preparation of active compound, 1 part by weight of active compound is mixed with the stated amount of solvents and is diluted with water, containing an emulsifier concentration of 1000 ppm, to the desired concentration. Further test concentrations are prepared by dilution with emulsifier containing water.
Rice plants (Oryza sativa) are sprayed with a preparation of the active ingredient of the desired concentration and the plants are infested with the brown planthopper (Nilaparvata lugens).
After 4 days mortality in % is determined. 100% means all planthoppers have been killed and 0% means none of the planthoppers have been killed.

Diabrotica balteata = Diabrotica balteata spray test; settings: Diabrotica balteata, 168 h; 160 μg/well, wheat seeds, after 7 days; read-out: efficacy (seedlings grown)
Experimental: Diabrotica balteata—Spray Test
as §1, with “solvent,” for “solvents”, “and the concentrate” for “and”
Soaked wheat seeds (Triticum aestivum) are placed in a multiple well plate filled with agar and some water and are incubated for 1 day to germinate (5 seeds per well). The germinated wheat seeds are sprayed with a test solution containing the desired concentration of the active ingredient. Afterwards each unit is infected with 10-20 larvae of the banded cucumber beetle (Diabrotica balteata).
After 7 days efficacy in % is determined. 100% means all the seedlings have grown up like in the untreated, uninfected control; 0% means none of the seedlings have grown.

Myzus persicae = Myzus persicae oral test; settings: 120 h
Experimental: To produce a suitable preparation of active compound, 1 part by weight of active compound is mixed with the stated amount of solvent, and the concentrate is diluted with water to the desired concentration.
50 μl compound solution is filled in microtiter plates and 150 μl IPL41 insect medium (33%+15% sugar) is added to obtain a total volume of 200 μl per well. Afterwards the plates are sealed with parafilm through which a mixed population of the green peach aphid (Myzus persicae) can suck on the compound preparation.
After 5 days mortality in % is determined. 100% means all aphids have been killed and 0% means none of the aphids have been killed.

Nezara viridula = Nezara viridula spray test; settings: in Hordeum vulgare, 96 h
Experimental: Nezara viridula—Spray Test
as §1, with “solvent,” for “solvents”, “and the concentrate” for “and”
Barley plants (Hordeum vulgare) infested with larvae of the southern green stink bug (Nezara viridula) are sprayed with a test solution containing the desired concentration of the active ingredient.
After 4 days mortality in % is determined. 100% means all the stink bugs have been killed; 0% means none of the stink bugs have been killed.

Spodoptera frugiperda = Spodoptera frugiperda spray test; settings: in Zea mays, 168 h
Experimental: Spodoptera frugiperda—Spray Test
as §1
Maize (Zea mays) leaf sections are sprayed with a preparation of the active ingredient of the desired concentration. Once dry, the leaf sections are infested with fall armyworm larvae (Spodoptera frugiperda).
After 7 days mortality in % is determined. 100% means all caterpillars have been killed and 0% means none of the caterpillars have been killed.

Boophilus microplus = Boophilus microplus injection test; settings: Rhipicephalus microplus, 168 h, 20 μg/animal, egg deposition after 7 days, read-out: efficacy (infertile eggs)
Experimental: Boophilus microplus—Injection Test
(§2) Solvent: dimethyl sulfoxide
To produce a suitable preparation of active compound, 10 mg of active compound are dissolved in 0.5 ml solvent, and the concentrate is diluted with solvent to the desired concentration.
Five adult engorged female ticks (Boophilus microplus) are injected with 1 μl compound solution into the abdomen. The ticks are transferred into replica plates and incubated in a climate chamber.
After 7 days egg deposition of fertile eggs is monitored. Eggs where fertility is not visible are stored in a climate chamber till hatching after about 42 days. An efficacy of 100% means all eggs are infertile; 0% means all eggs are fertile.

Ctenocephalides felis [1] = assay: Ctenocephalides felis oral test; settings: Ctenocephalides felis, in Bos taurus, po, 48 h
Experimental: Ctenocephalides felis—Oral Test
as §2
To produce a suitable preparation of active compound, 10 mg of active compound are dissolved in 0.5 ml solvent, and the concentrate is diluted with cattle blood to the desired concentration.
Approximately 20 adult unfed cat fleas (Ctenocephalides felis) are placed in flea chambers. The blood chamber, sealed with parafilm on the bottom, are filled with cattle blood supplied with compound solution and placed on the gauze covered top of the flea chamber, so that the fleas are able to suck the blood. The blood chamber is heated to 37° C. whereas the flea chamber is kept at room temperature.
After 2 days mortality in % is determined. 100% means all the fleas have been killed; 0% means none of the fleas have been killed.

[2] = system: Aedes aegypti strain MONHEIM; assay: Aedes aegypti test (AEDSAE surface treatment & contact assay); settings: 24 hours after contact, read-out: efficacy (mortality); for mortality at 4 mg/m2: surface concentration 4 mg/m^2, 30 minutes exposure; for mortality at 20 mg/m2: surface concentration 20 mg/m^2, 30 minutes exposure
Experimental: Aedes aegypti Test (AEDSAE Surface Treatment & Contact Assay)
(§3) Solvent: Aceton+2000 ppm rapeseed oil methyl ester (RME)
(§4) In order to produce a sufficient, active ingredient containing solution it is necessary to solve the test-compound in the solvent-mix (Acetone at 2 mg/ml/RME 2000 ppm). This solution is pipetted onto a glazed tile and after evaporation of the Acetone, adult mosquitoes of the species Aedes aegypti strain MONHEIM are placed onto the dried surface. The exposure time is 30 minutes.
(§5) Mortality in percent (%) is determined 24 hours after contact to the treated surface. 100% mortality means that all test-insects are dead, whereas 0% means that not a single insect died.

[3] = system: Culex quinquefasciatus strain P00; assay: Culex quinquefasciatus test (CULXFA surface treatment & contact assay); settings: 24 hours after contact, read-out: efficacy (mortality); for mortality at 20 mg/m2: surface concentration 20 mg/m^2, 30 minutes exposure; for mortality at 4 mg/m2: surface concentration 4 mg/m^2, 30 minutes exposure
Experimental: Culex quinquefasciatus Test (CULXFA Surface Treatment & Contact Assay)
as §3
as §4, with “Culex quinquefasciatus” for “Aedes aegypti”, “P00” for “MONHEIM”
as §5

[4] = system: Anopheles funestus strain FUMOZ-R; assay: Anopheles funestus test (ANPHFU surface treatment & contact assay); settings: 24 hours after contact, read-out: efficacy (mortality); for mortality at 4 mg/m2: surface concentration 4 mg/m^2, 30 minutes exposure
Experimental: Anopheles funestus Test (ANPHFU Surface Treatment & Contact Assay)
as §3
as §4, with “Anopheles funestus” for “Aedes aegypti”, “FUMOZ-R (Hunt et al., Med Vet Entomol. 2005 September; 19(3):271-5)” for “MONHEIM”
as §5

Ctenocephalides felis [5] = assay: Ctenocephalides felis in-vitro contact test adult cat flea; settings: Ctenocephalides felis; 5 μg/cm^2 (=500 g/ha), after 48 hours; read-out: efficacy (fleas dead or moribund)
Experimental: Ctenocephalides felis—In-Vitro Contact Test Adult Cat Flea
9 mg compound is solved in 1 ml acetone and diluted with acetone to the desired concentration. 250 μl of the test solution is filled in 25 ml glass test tubes and homogeneously distributed on the inner walls by rotation and tilting on a shaking device (2 h at 30 rpm). With a compound concentration of 900 ppm, an inner surface of 44.7 cm^2 and a homogeneous distribution, a dose of 5 μg/cm^2 is achieved.
After the solvent has evaporated, each test tube is filled with 5-10 adult cat fleas (Ctenocephalides felis), closed with a perforated lid and incubated in a lying position at room temperature and relative humidity. After 48 hours efficacy is determined. The fleas are patted on the ground of the tubes and are incubated on a heating plate at 45-50° C. for at most 5 minutes. Immotile or uncoordinated moving fleas, which are not able to escape the heat by climbing upwards, are marked as dead or moribund.
An efficacy of 100% means all fleas are dead or moribund; 0% means no fleas are dead or moribund.

Row | Compound | mortality at 500 g/ha (Nilaparvata lugens) [%] | pest or weed control at 160 µg/disc, 160 µg/well (Diabrotica balteata) [%] | mortality at 500 g/ha (Nezara viridula) [%] | mortality at 500 g/ha (Spodoptera frugiperda) [%] | mortality at 100 ppm (Ctenocephalides felis [1]) [%] | mortality at 20 mg/m2 [2] [%] | also measured
1 | CC(c1ncnn1-c1ncccn1)N(CC1CC1)C(=O)c1c(F)cccc1F (stereo not shown) [Example I-018] | 100 | – | – | – | – | – | –
2 | C[C@H](NC(=O)c1cc(Cl)cc(S(=O)(=O)C(F)(F)F)c1)c1ncnn1-c1ncccn1 [Example I-033, 3-chloro-N-{(1S)-1-[1-(pyrimidin-2-yl)-1H-1,2,4-triazol-5-yl]ethyl}-5-[(trifluoromethyl)sulfonyl]benzamide] | 100 | 100 | 100 | 100 | – | – | mortality at 4 ppm (Myzus persicae): 100%
3 | CC(NC(=O)c1cc(Cl)cc(-n2cncn2)c1)c1ncnn1-c1ncccn1 (stereo not shown) [Example I-049] | 100 | 100 | 100 | – | 100 | 90 to 100 | pest or weed control at 0.02 mg (Boophilus microplus): 100%; mortality at 4 mg/m2 [2]: 80 to 100%; mortality at 20 mg/m2 [3]: 80 to 100%; mortality at 4 mg/m2 [4]: 85 to 100%; mortality at 20 mg/m2 ([4]; surface concentration 20 mg/m^2, 30 minutes exposure): 85 to 100%
4 | CC(C)S(=O)(=O)c1cc(Cl)cc(C(=O)N[C@@H](C)c2ncnn2-c2ncccn2)c1 [Example I-051, 3-chloro-5-(isopropylsulfonyl)-N-{(1S)-1-[1-(pyrimidin-2-yl)-1H-1,2,4-triazol-5-yl]ethyl}benzamide] | – | 100 | 100 | 100 | 100 | – | pest or weed control at 5 µg/cm2, 5 µg/cm2 (Ctenocephalides felis [5]): 80%; pest or weed control at 0.02 mg (Boophilus microplus): 100%; mortality at 4 ppm (Myzus persicae): 100%
5 | COC[C@H](NC(=O)c1cc(Cl)cc(S(C)(=O)=O)c1)c1ncnn1-c1ncccn1 [Example I-059] | 100 | – | – | – | 100 | – | pest or weed control at 5 µg/cm2, 5 µg/cm2 (Ctenocephalides felis [5]): 80%
6 | C[C@H](NC(=O)c1cc(Cl)cc(S(C)(=O)=O)c1)c1ncnn1-c1ccc(OC(F)F)cn1 [Example I-063] | – | 100 | 100 | 100 | – | 90 to 100 | mortality at 4 ppm (Myzus persicae): 100%; mortality at 4 mg/m2 [2]: 80 to 100%; mortality at 4 mg/m2 [3]: 80 to 100%; mortality at 20 mg/m2 [3]: 80 to 100%
7 | C[C@@H](NC(=O)c1cc(Cl)cc(S(=O)(=O)C(F)(F)F)c1)c1ncnn1-c1nccs1 [Example I-077] | – | 100 | – | 100 | 90 | 90 to 100 | pest or weed control at 0.02 mg (Boophilus microplus): 100%
8 | C[C@@H](NC(=O)c1cc(Cl)cc(S(C)(=O)=O)c1)c1ncnn1-c1ccc(C(F)(F)F)cn1 [Example I-089] | – | 100 | 100 | 100 | 100 | 90 to 100 | pest or weed control at 5 µg/cm2, 5 µg/cm2 (Ctenocephalides felis [5]): 100%; mortality at 4 mg/m2 [2]: 80 to 100%; mortality at 4 mg/m2 [3]: 80 to 100%; mortality at 20 mg/m2 [3]: 80 to 100%
9 | C[C@H](NC(=O)c1cc(Cl)cc(S(=O)(=O)CC(F)(F)F)c1)c1ncnn1-c1ncccn1 [Example I-093, 3-chloro-N-{(1S)-1-[1-(pyrimidin-2-yl)-1H-1,2,4-triazol-5-yl]ethyl}-5-[(2,2,2-trifluoroethyl)sulfonyl]benzamide] | – | 100 | 100 | – | – | 90 to 100 | mortality at 4 ppm (Myzus persicae): 90%; mortality at 4 mg/m2 [2]: 80 to 100%; mortality at 4 mg/m2 [3]: 80 to 100%; mortality at 20 mg/m2 [3]: 80 to 100%; mortality at 4 mg/m2 [4]: 85 to 100%
10 | CC(NC(=O)c1cc(Cl)cc(-n2ccc(C(F)(F)F)n2)c1)c1ncnn1-c1ncccn1 (stereo not shown) [Example I-094] | – | 100 | – | 83 | – | – | –
11 | C[C@@H](NC(=O)c1cc(Cl)cc(S(C)(=O)=O)c1)c1nc(C(F)(F)F)nn1-c1ccc(C#N)cn1 [Example I-110] | – | – | 100 | 100 | – | – | –
12 | C[C@@H](NC(=O)c1cncc(-c2ccc(F)cc2)c1)c1ncnn1-c1ncccn1 [Example I-111] | 100 | – | – | – | – | – | –
13 | C[C@@H](NC(=O)c1cc(F)cc(C2CC2)c1)c1ncnn1-c1ccc(C#N)cn1 [Example I-113] | – | 100 | 90 | 100 | – | – | –
14 | C[C@H](NC(=S)c1cc(F)cc(C2CC2)c1)c1ncnn1-c1ccc(C#N)cn1 [Example I-120, N-{(1S)-1-[1-(5-cyanopyridin-2-yl)-1H-1,2,4-triazol-5-yl]ethyl}-3-cyclopropyl-5-fluorobenzenecarbothioamide] | 100 | 100 | 100 | 100 | – | – | –
15 | C[C@@H](NC(=O)c1cc(-c2ccc(F)cc2)cc(C(F)(F)F)c1)c1ncnn1-c1ccc(C#N)cn1 [Example I-123] | – | 100 | – | 100 | – | – | –
